Series [1] relates to HTNV-76118 strain. The series can be described thus: microbe, parasite or virus in culture. The settings on record: Orthohantavirus hantanense, Vero C1008, 120 h. In kind it is cell-based, Hantaan virus (HTNV).
For series [2], the system named is HTNV-76118 strain. The series can be described thus: microbe, parasite or virus in culture. Type of series: cell-based, Hantaan virus (HTNV). The note with it: Orthohantavirus hantanense, Vero C1008, read-out: EC50, 2H pretreatment.
For series [3], the system named is HTNV-76118 strain. Description: microbe, parasite or virus in culture. In kind it is cell-based, Hantaan virus (HTNV). The note with it: Orthohantavirus hantanense, Vero C1008, read-out: EC50, Post entry.
Series [4] relates to HTNV-76118 strain. The series can be described thus: microbe, parasite or virus in culture. The settings on record: for EC50: Orthohantavirus hantanense, Vero C1008, read-out: EC50, Virucidal. In kind it is cell-based, Hantaan virus (HTNV).
The test system of the next series is HTNV. In kind it is cell-based, Hantaan virus (HTNV).
Another series in a line: in vitro. The settings on record: African green monkey.

Where two headings read alike, the source gives them in different places.

With `CC(C)CC(=O)c1c(O)c2c(c3c1OC1(O)C(C(=O)C(C)(C)C(=O)C1(C)C)C3C(C)C)OC1=C(C(=O)C(C)(C)C(=O)C1(C)C)C2CC(C)C` (stereo not shown) [Callistemontrimer A, callistemontrimer A], the 50% effective concentration (EC50) was 4.41 ± 3.4 µM in the series on HTNV-76118 strain [1], above 50 µM in the series on HTNV-76118 strain [2], 0.65 ± 0.45 µM in the series with HTNV-76118 strain [3] and above 50 µM in the series on HTNV-76118 strain [4]. Besides, the “direct virucidal effect on HTNV” value with HTNV-76118 strain [4] is given as “neither compound exhibited a direct virucidal effect”. The “suppression of viral replication (HTNV nucleoprotein immunofluorescence)” value in the series on HTNV is listed as “effectively suppressed viral replication”. Also, the CC50 in “in vitro” came out at 32.1 ± 6 µM.

In turn, `CC(C)CC(=O)c1c(O)c2c(c3c1OC1(O)C(C(=O)C(C)(C)C(=O)C1(C)C)C3CC(C)C)OC1=C(C(=O)C(C)(C)C(=O)C1(C)C)C2CC(C)C` (stereo not shown) [Callistemontrimer B, callistemontrimer B] had a half-maximal effective concentration (EC50) in the series on HTNV-76118 strain [1] of 2.79 ± 1.4 µM. Further, the CC50 in the series “in vitro” was determined as 16.9 ± 1 µM.

With `CC(C)CC(=O)c1c(O)cc2c(c1O)C(CC(C)C)C1=C(O2)C(C)(C)C(=O)C(C)(C)C1=O` (stereo not shown) [Rhodomyrtone, rhodomyrtone], the concentration for a half-maximal effect (EC50) with HTNV-76118 strain [1] worked out at 0.3 ± 0.03 µM. Also, the CC50 in the series “in vitro” was 5.11 ± 2.49 µM.

`CC(C)CC(=O)c1c(O)cc(O)c2c1OC1=C(C(=O)C(C)(C)C(=O)C1(C)C)C2CC(C)C` (stereo not shown) [Rhodomyrtosone B, rhodomyrtosone B]: in the series with HTNV-76118 strain [1], the EC50 was 2.69 ± 0.32 µM. In “in vitro”, the CC50 was 7.44 ± 1.15 µM.

In the case of `NC(=O)c1ncn([C@@H]2O[C@H](CO)[C@@H](O)[C@H]2O)n1` [Ribavirin, ribavirin, reference compound], the half-maximal effective concentration (EC50) was 20.5 ± 1.63 µM in the series with HTNV-76118 strain [1], above 200 µM with HTNV-76118 strain [2], 13.2 ± 0.4 µM in the series with HTNV-76118 strain [3] and above 200 µM in the series on HTNV-76118 strain [4]. For the same compound, in the series with HTNV-76118 strain [4], the “direct virucidal effect on HTNV” value was “neither compound exhibited a direct virucidal effect”. Also, in the series “in vitro”, the CC50 was above 200 µM.

(Values after article PMC12299576 (Viruses, 2025).)
